Data published in patent publication US20250026752A1, “POSITIVE ALLOSTERIC MODULATORS OF THE MUSCARINIC ACETYLCHOLINE RECEPTOR M4” (Vanderbilt University, priority 2021, published 2025).
pEC50: −log10 of the molar value.

Target: T1, human mAChR M4 (Homo sapiens, UniProt P08173)
T1 construct: expressed in transfected cells; host or cells: CHO-K1 (ATCC), stably expressing hM4 and Gqi5
T1 sequence (P08173 1-479): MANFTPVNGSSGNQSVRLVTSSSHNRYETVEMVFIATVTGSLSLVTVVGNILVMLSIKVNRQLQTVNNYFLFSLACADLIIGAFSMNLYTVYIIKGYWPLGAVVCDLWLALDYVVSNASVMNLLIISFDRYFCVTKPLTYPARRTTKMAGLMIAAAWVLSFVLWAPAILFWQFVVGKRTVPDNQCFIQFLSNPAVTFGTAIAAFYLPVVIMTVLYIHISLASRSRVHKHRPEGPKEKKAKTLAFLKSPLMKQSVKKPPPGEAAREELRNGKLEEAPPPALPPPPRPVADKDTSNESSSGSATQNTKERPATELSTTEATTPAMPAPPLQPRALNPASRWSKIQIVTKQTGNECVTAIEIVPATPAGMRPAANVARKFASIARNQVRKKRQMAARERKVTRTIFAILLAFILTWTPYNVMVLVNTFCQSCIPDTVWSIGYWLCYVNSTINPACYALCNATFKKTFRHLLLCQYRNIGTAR
Test: mAChR M4 cell-based functional assay: calcium flux (Fluo-4, FDSS), positive allosteric modulator activity on the EC20 acetylcholine response, hM4-Gqi5 CHO-K1 cells
Settings: for Emax at 30 µM: CHO-K1, human M4, % ACh maximum at 30 μM; for pEC50: human M4, PAM activity on EC20 acetylcholine response, calcium flux, read-out: Human M4 EC50
Method in brief: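 CHO-K1 cells stably expressing human M4 with chimeric Gqi5, loaded with Fluo-4 AM for 50 min at 37° C. Compounds (11-point, 1:3 dilutions) added first, then an acetylcholine EC20 at 144 s; calcium read on FDSS at 1 Hz. EC50 is the half-maximal increase above the EC20 baseline, four-parameter logistic fit.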

SMILES	Emax at 30 µM [%]	pEC50
Fc1ccc2nc(Cl)nc(N3CCc4ncc(C(F)(F)F)cc4C3)c2c1 [Compound 120, 2-chloro-6-fluoro-4-[3-(trifluoromethyl)-7,8-dihydro-5H-1,6-naphthyridin-6-yl]quinazoline]	91	7.00
Cc1nc(N2CCc3ncc(-c4cnc(C)s4)cc3C2)c2cc(Cl)ccc2n1 [Compound 48, 5-[6-(6-chloro-2-methyl-quinazolin-4-yl)-7,8-dihydro-5H-1,6-naphthyridin-3-yl]-2-methyl-thiazole]	92	6.57
Cc1nc(N2CCc3ncc(-c4cn(C)nc4C)cc3C2)c2cc(C(F)(F)F)ccc2n1 [Compound 57, 4-[3-(1,3-dimethylpyrazol-4-yl)-7,8-dihydro-5H-1,6-naphthyridin-6-yl]-2-methyl-6-(trifluoromethyl)quinazoline]	59	5.54
Fc1cc2c(N3CCc4ncc(Nc5cccnc5F)cc4C3)nc(Cl)nc2cc1Cl [Compound 110, 6-(2,7-dichloro-6-fluoro-quinazolin-4-yl)-N-(2-fluoro-3-pyridyl)-7,8-dihydro-5H-1,6-naphthyridin-3-amine]	76	5.41
Cc1nc(N2CCc3ncc(-c4cnc(F)cc4C)cc3C2)c2cc(Cl)ccc2n1 [Compound 311, 6-chloro-4-(3-(6-fluoro-4-methylpyridin-3-yl)-7,8-dihydro-1,6-naphthyridin-6(5H)-yl)-2-methylquinazoline]	77	6.74
Clc1nc(N2CCc3ncc(-c4cnn(C5CC5)c4)cc3C2)c2cccnc2n1 [Compound 34, 2-chloro-4-[3-(1-cyclopropylpyrazol-4-yl)-7,8-dihydro-5H-1,6-naphthyridin-6-yl]pyrido[2,3-d]pyrimidine]	53	6.22
Cc1ccc2nc(C)nc(N3CCc4ncc(-c5cnc(C)s5)cc4C3)c2c1 [Compound 55, 5-[6-(2,6-dimethylquinazolin-4-yl)-7,8-dihydro-5H-1,6-naphthyridin-3-yl]-2-methyl-thiazole]	92	6.32
Clc1ccc2nc(C3CC3)nc(N3CCc4ncc(N5CCCn6nccc65)cc4C3)c2c1 [Compound 192, 6-chloro-2-cyclopropyl-4-[3-(6,7-dihydro-5H-pyrazolo[1,5-a]pyrimidin-4-yl)-7,8-dihydro-5H-1,6-naphthyridin-6-yl]quinazoline]	100	6.39
Cc1ccc2ncnc(N3CCc4ncc(N5CCCn6nccc65)cc4C3)c2c1 [Compound 78, 4-[3-(6,7-dihydro-5H-pyrazolo[1,5-a]pyrimidin-4-yl)-7,8-dihydro-5H-1,6-naphthyridin-6-yl]-6-methyl-quinazoline]	129	7.52
CN1CCN(c2nc(N3CCc4ncc(Nc5ccnn5C)cc4C3)c3cc(F)ccc3n2)CC1 [Compound 211, 6-[6-fluoro-2-(4-methylpiperazin-1-yl)quinazolin-4-yl]-N-(2-methylpyrazol-3-yl)-7,8-dihydro-5H-1,6-naphthyridin-3-amine]	80	6.33
Cc1nc(N2CCc3ncc(N4CCCn5nccc54)cc3C2)c2cc(C(F)(F)F)ccc2n1 [Compound 101, 4-[3-(6,7-dihydro-5H-pyrazolo[1,5-a]pyrimidin-4-yl)-7,8-dihydro-5H-1,6-naphthyridin-6-yl]-2-methyl-6-(trifluoromethyl)quinazoline]	92	6.32
Cc1nc(N2CCc3ncc(-c4c(C)cnn4C)cc3C2)c2cc(Cl)ccc2n1 [Compound 256, 6-chloro-4-(3-(1,4-dimethyl-1H-pyrazol-5-yl)-7,8-dihydro-1,6-naphthyridin-6(5H)-yl)-2-methylquinazoline]	94	6.85
Cc1ccc2ncnc(N3CCc4ncc(C(F)(F)F)cc4C3)c2c1 [Compound 131, 6-methyl-4-[3-(trifluoromethyl)-7,8-dihydro-5H-1,6-naphthyridin-6-yl]quinazoline]	82	7.52

Results, then the molecule that gave them:

Emax at 30 µM [%]	pEC50	SMILES
85	6.89	Cc1nc(N2CCc3ncc(Nc4cccnc4F)cc3C2)c2cc(F)ccc2n1 [Compound 70, 6-(6-fluoro-2-methyl-quinazolin-4-yl)-N-(2-fluoro-3-pyridyl)-7,8-dihydro-5H-1,6-naphthyridin-3-amine]
75	6.23	Fc1ccc2ncnc(N3CCc4ncc(Cc5ccccc5F)cc4C3)c2c1 [Compound 164, 6-fluoro-4-[3-[(2-fluorophenyl)methyl]-7,8-dihydro-5H-1,6-naphthyridin-6-yl]quinazoline]
82	6.31	Fc1ccc(Cc2cnc3c(c2)CN(c2ncnc4ccc(F)cc24)CC3)cc1 [Compound 170, 6-fluoro-4-[3-[(4-fluorophenyl)methyl]-7,8-dihydro-5H-1,6-naphthyridin-6-yl]quinazoline]
94	7.10	Cc1ccc2ncnc(N3CCc4ncc(Nc5ccnn5C)cc4C3)c2c1 [Compound 96, N-(2-methylpyrazol-3-yl)-6-(6-methylquinazolin-4-yl)-7,8-dihydro-5H-1,6-naphthyridin-3-amine]
92	7.30	Clc1ccc2ncnc(N3CCc4ncc(C5CC5)cc4C3)c2c1 [Compound 231, 6-chloro-4-(3-cyclopropyl-7,8-dihydro-1,6-naphthyridin-6(5H)-yl)quinazoline]
80	6.34	Fc1cc2c(N3CCc4ncc(N5CCCn6nccc65)cc4C3)nc(Cl)nc2cc1Cl [Compound 109, 2,7-dichloro-4-[3-(6,7-dihydro-5H-pyrazolo[1,5-a]pyrimidin-4-yl)-7,8-dihydro-5H-1,6-naphthyridin-6-yl]-6-fluoro-quinazoline]
38	< 5.00	COc1ccc2ncnc(N3CCc4ncc(Oc5cc(C)ccc5F)cc4C3)c2c1 [Compound 153, 4-[3-(2-fluoro-5-methyl-phenoxy)-7,8-dihydro-5H-1,6-naphthyridin-6-yl]-6-methoxy-quinazoline]
82	6.32	Cc1nc(N2CCc3ncc(C(F)(F)F)cc3C2)c2ccccc2n1 [Compound 138, 2-methyl-4-[3-(trifluoromethyl)-7,8-dihydro-5H-1,6-naphthyridin-6-yl]quinazoline]
73	6.10	Cn1nccc1-c1cnc2c(c1)CN(c1ncnc3cc(F)c(F)cc13)CC2 [Compound 239, 6,7-difluoro-4-(3-(1-methyl-1H-pyrazol-5-yl)-7,8-dihydro-1,6-naphthyridin-6(5H)-yl)quinazoline]
85	6.72	CC(C)n1nccc1-c1cnc2c(c1)CN(c1ncnc3cc(F)c(F)cc13)CC2 [Compound 268, 6,7-difluoro-4-(3-(1-isopropyl-1H-pyrazol-5-yl)-7,8-dihydro-1,6-naphthyridin-6(5H)-yl)quinazoline]
127	6.74	Cc1ccc2nc(Nc3ccnn3C)nc(N3CCc4ncc(Nc5ccnn5C)cc4C3)c2c1 [Compound 189, 6-methyl-N-(2-methylpyrazol-3-yl)-4-[3-[(2-methylpyrazol-3-yl)amino]-7,8-dihydro-5H-1,6-naphthyridin-6-yl]quinazolin-2-amine]
90	7.22	Cc1cnn(C)c1-c1cnc2c(c1)CN(c1ncnc3ccc(F)cc13)CC2 [Compound 266, 4-(3-(1,4-dimethyl-1H-pyrazol-5-yl)-7,8-dihydro-1,6-naphthyridin-6(5H)-yl)-6-fluoroquinazoline]
92	6.89	Cc1nc(N2CCc3ncc(-c4cnc(F)cc4C)cc3C2)c2cc(F)ccc2n1 [Compound 305, 6-fluoro-4-(3-(6-fluoro-4-methylpyridin-3-yl)-7,8-dihydro-1,6-naphthyridin-6(5H)-yl)-2-methylquinazoline]
75	6.34	Cc1nc(N2CCc3ncc(-c4ccc(C(F)(F)F)nc4)cc3C2)c2cc(F)ccc2n1 [Compound 3, 6-fluoro-2-methyl-4-[3-[6-(trifluoromethyl)-3-pyridyl]-7,8-dihydro-5H-1,6-naphthyridin-6-yl]quinazoline]
86	7.00	Cc1cnn(C)c1-c1cnc2c(c1)CN(c1ncnc3cc(F)c(F)cc13)CC2 [Compound 270, 4-(3-(1,4-dimethyl-1H-pyrazol-5-yl)-7,8-dihydro-1,6-naphthyridin-6(5H)-yl)-6,7-difluoroquinazoline]
91	6.70	CC(O)(c1cnc2c(c1)CN(c1ncnc3cc(F)c(F)cc13)CC2)C(F)(F)F (stereo not drawn) [Compound 290, 2-(6-(6,7-difluoroquinazolin-4-yl)-5,6,7,8-tetrahydro-1,6-naphthyridin-3-yl)-1,1,1-trifluoropropan-2-ol]
112	5.72	Fc1ccc2nc(C3CC3)nc(N3CCc4ncc(C(F)(F)F)cc4C3)c2c1 [Compound 178, 2-cyclopropyl-6-fluoro-4-[3-(trifluoromethyl)-7,8-dihydro-5H-1,6-naphthyridin-6-yl]quinazoline]
